One experiment has as its target Phosphodiesterase 1 (Homo sapiens, UniProt P54750+Q01064+Q14123). In words: Inhibition of phosphodiesterase 1. Format: protein assay.
For experiment [1], the target named is cGMP-specific 3',5'-cyclic phosphodiesterase (Homo sapiens, UniProt O76074).
Description: Inhibition of phosphodiesterase 5

pIC50: −log10 of the molar value.

The term IC50 denotes the midpoint of a concentration-inhibition curve. The low end stands for inhibition by little substance, the high end for a need for much substance. As for `CCCc1nc(C)c2c(=O)[nH]c(-c3cc(S(=O)(=O)N4CCN(C)CC4)ccc3OCC)nn12`, at Phosphodiesterase 1, the IC50 is on record as 300 nM. Broadly, the pIC50 is the IC50 on a negative log10 scale, so that one unit is a factor of ten. High values mean a small IC50, low ones a large IC50. As for `CCOc1ccccc1-c1nc(O)c2c(C)nc(C3CCCC3)n2n1`, on Phosphodiesterase 1, the half-maximal inhibitory concentration (IC50) turned out to be 30 nM. In experiment [1], this molecule had a pIC50 of 8.30. `CCCn1cnc2c(O)nc(-c3cc(S(=O)(=O)N4CCN(C)CC4)ccc3OCC)nc21` had a pIC50 in experiment [1] of 8.00. `CCOc1ccccc1-c1nc(O)n2c(C)nc(C3CCCC3)c2n1` displayed a half-inhibitory concentration (IC50) on Phosphodiesterase 1 of 40 nM. Further, the pIC50 in experiment [1] is 7.70. On Phosphodiesterase 1, `CCOc1ccc(S(=O)(=O)N2CCN(CCO)CC2)cc1-c1nc(O)c2nnc(C3CCCC3)n2n1` registered an IC50 of 50 nM. Further, the negative logarithm of the IC50 (pIC50) in experiment [1] is 7.30. On Phosphodiesterase 1, `CCCc1nc(C)c2c(O)nc(-c3cc(S(=O)(=O)N4CCN(CCO)CC4)ccc3OCC)nn12` yielded a concentration for half-maximal inhibition (IC50) of 20 nM. Besides, the negative-log IC50 (pIC50) in experiment [1] is 8.30. The corresponding values for `CCOc1ccc(S(=O)(=O)N2CCN(CCO)CC2)cc1-c1nc(O)c2c(C)nc(C)n2n1` are 1000 nM and 8.00. For `CCOc1ccccc1-c1nc(O)c2nnc(C3CCCC3)n2n1` the same measures were 50 nM and 6.70.

Consider `CCOc1ccccc1-c1nc(O)c2c(C)nc(C)n2n1`, for which the IC50 against Phosphodiesterase 1 worked out at 1000 nM. This molecule showed a negative logarithm of the IC50 (pIC50) in experiment [1] of 6.70. Regarding `CCOc1ccc(S(=O)(=O)N2CCN(C)CC2)cc1-c1nc2c(c(CC)nn2C2CCCC2)c(=O)[nH]1`, the IC50 against Phosphodiesterase 1 is on record as greater than 1000 nM. In experiment [1], this molecule had a pIC50 of 7.40. The corresponding values for `CCOc1ccc(S(=O)(=O)N2CCN(CCO)CC2)cc1-c1nc(O)n2c(C)nc(C3CCCC3)c2n1` are 30 nM and 8.00. In turn, `CCOc1ccc(S(=O)(=O)N2CCN(C)CC2)cc1-c1nc(O)c2c(CC)nc(C3CCCC3)n2n1` registered an IC50 against Phosphodiesterase 1 greater than 1000 nM. Moreover, the negative logarithm of the IC50 (pIC50) in experiment [1] is 8.15. `CCCn1nc(C)c2c(=O)[nH]c(-c3cc(S(=O)(=O)N4CCN(C)CC4)ccc3OCC)nc21` showed an IC50 at Phosphodiesterase 1 of 1000 nM. The same molecule had a negative-log IC50 (pIC50) in experiment [1] of 8.10. The corresponding values for `CCOc1ccc(S(=O)(=O)N2CCN(CCO)CC2)cc1-c1nc(O)c2onc(C3CCCC3)c2n1` are 30 nM and 8.00.

On Phosphodiesterase 1, `CCCn1cnc2c(O)nc(-c3ccccc3OCC)nc21` displayed an IC50 of 10 nM. `CCCc1nc(C)n2c(O)nc(-c3cc(S(=O)(=O)N4CCN(C)CC4)ccc3OCC)nc12` yielded an IC50 against Phosphodiesterase 1 of 500 nM. The negative-log IC50 (pIC50) in experiment [1] was 8.00. In experiment [1], `CCCc1n[nH]c2c(O)nc(-c3ccccc3OCC)nc12` showed a pIC50 of 7.30. For the molecule `CCCc1nc(C)c2c(=O)[nH]c(-c3ccccc3OCC)nn12`, the IC50 against Phosphodiesterase 1 is given as 300 nM. At Phosphodiesterase 1, `CCOc1ccccc1-c1nc(O)c2onc(C3CCCC3)c2n1` came in with an IC50 of 200 nM. In addition, the negative-log IC50 (pIC50) in experiment [1] is 7.70. For `CCOc1ccccc1-c1nc(O)c2ncn(C3CCCC3)c2n1` the same measures were 500 nM and 7.30. For `CCCn1nc(CC)c2c(=O)[nH]c(-c3cc(S(=O)(=O)N4CCN(C)CC4)ccc3OCC)nc21` the same measures were greater than 1000 nM and 7.70. The corresponding values for `CCOc1ccccc1-c1nc(O)c2ncn(C3CC3)c2n1` are 1000 nM and 6.52. At Phosphodiesterase 1, `CCOc1ccccc1-c1nc(O)c2ncn(C3CCC3)c2n1` returned a half-maximal inhibitory concentration (IC50) of 1000 nM. In experiment [1], this molecule gave a pIC50 of 7.00.

On Phosphodiesterase 1, `CCOc1ccc(S(=O)(=O)N2CCN(C)CC2)cc1-c1nc(O)c2c(C)nc(C3CCCC3)n2n1` displayed a concentration for half-maximal inhibition (IC50) of 10 nM. Further, the pIC50 in experiment [1] was 9.00. As for `CCCn1nc(C)c2c(=O)[nH]c(-c3ccccc3OCC)nc21`, in experiment [1], the pIC50 was 9.00. In the case of `CCOc1ccccc1-c1nc(O)c2nnn(C3CCCC3)c2n1`, the half-inhibitory concentration (IC50) at Phosphodiesterase 1 worked out at 800 nM. In addition, in experiment [1], the negative logarithm of the IC50 (pIC50) was 6.30. For the molecule `CCOc1ccc(S(=O)(=O)N2CCN(CCO)CC2)cc1-c1nc(O)c2c(C)nc(C3CCCC3)n2n1`, at Phosphodiesterase 1, the half-inhibitory concentration (IC50) worked out at 10 nM. Moreover, the pIC50 in experiment [1] is 9.00. For `CCCc1nc(CC)c2c(O)nc(-c3cc(S(=O)(=O)N4CCN(C)CC4)ccc3OCC)nn12` the same measures were greater than 1000 nM and 8.10. On to `CCCn1nnc2c(O)nc(-c3ccccc3OCC)nc21`, for which the pIC50 in experiment [1] is 6.52. Consider `CCOc1ccc(S(=O)(=O)N2CCN(CCO)CC2)cc1-c1nc(O)c2c(n1)c(C1CCCC1)nn2C`, for which the IC50 on Phosphodiesterase 1 is recorded as 10 nM. The molecule further had a negative logarithm of the IC50 (pIC50) in experiment [1] of 8.30. Molecule `CCCc1nc(C)n2c(O)nc(-c3ccccc3OCC)nc12` came in with an IC50 against Phosphodiesterase 1 of 200 nM. Besides, in experiment [1], the pIC50 was 7.40.

On to `CCCc1nn(C)c2c(=O)[nH]c(-c3ccccc3OCC)nc12`, for which the IC50 on Phosphodiesterase 1 came out at 790 nM.

For the origin of these results see ChEMBL document CHEMBL1142799, “Comparison of different heterocyclic scaffolds as substrate analog PDE5 inhibitors” (Bioorg Med Chem Lett, 2005).
